Laboratory results taken from paper PMC7108740, “Exploring the molecular structures that confer ligand selectivity for galanin type II and III receptors” (PLoS ONE, 2020).
Residue numbers refer to the chain shown, from its start. Ends that are not written are not given here.

How the values were obtained:
Type in all cases: cell-based
[1] = biological target: T1, GALR3 single mutant Y^103F (Homo sapiens, UniProt O60755, Y103F); assay: SRE-luc luciferase assay, GALR3 Y103F; conditions: GALR3 Y^103F; SRE-luc in HEK293 Gqi cells, ligand 6 h; mean ± S.E.; SEM
T1 construct: expressed in transfected cells; host or cells: HEK293 cells stably expressing Gqi
T1 sequence (O60755 1-368 Y103F): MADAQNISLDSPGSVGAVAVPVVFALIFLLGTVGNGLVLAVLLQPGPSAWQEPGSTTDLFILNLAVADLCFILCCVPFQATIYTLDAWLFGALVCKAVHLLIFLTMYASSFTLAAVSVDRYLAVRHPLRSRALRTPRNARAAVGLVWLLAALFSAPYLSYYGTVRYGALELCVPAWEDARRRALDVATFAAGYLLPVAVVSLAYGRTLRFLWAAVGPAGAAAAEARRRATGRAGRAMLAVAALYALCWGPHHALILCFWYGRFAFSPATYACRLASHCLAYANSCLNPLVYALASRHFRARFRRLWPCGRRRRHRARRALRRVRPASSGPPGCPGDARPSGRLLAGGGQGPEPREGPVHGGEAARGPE
Description: (§1) For domain swapping between GALR2 and GALR3, individual cDNA fragments of interest were amplified by polymerase chain reaction (PCR) with Pfu polymerase (ELPIS Biotech, Daejeon, Korea) and two specific primers, one corresponding to the 5' or 3' end of the GALR2 or GALR3 cDNA and the other to the region of overlap between the two receptors. The two resulting fragments, one from GALR2 and the other from GALR3, were subjected to a second round of PCR to generate the chimeric cDNAs. To construct single, double-, triple-, pentuple-, hextuple-, and septuple-mutant receptors, amino acids of GALR3 were substituted for the amino acids at the corresponding positions in GALR2 using PCR-based site-directed mutagenesis. All of the chimeric constructs were cloned into the pcDNA3 expression vector at HindⅢ and XbaⅠ sites. The DNA sequences of the chimeras were verified by automatic sequencing. HEK293 cells stably expressing the Gqi construct, which allows induction of Gq-dependent signaling pathways upon activation of a Gi-coupled receptor [14, 30], were maintained in Dulbecco's Modified Eagle's Medium (DMEM) in the presence of 10% fetal bovine serum and 1% penicillin and streptomycin. For all transfections, 200 ng DNA (100 ng receptor and 100 ng SRE-luc) mixed with lipofectamine 2000 was applied to 60–80% confluent cells on a multi-well plate according to the manufacturer's instructions (Invitrogen, Carlsbad, CA). For luciferase assays, HEK293 Gqi cells were seeded on 48-well plates at a density of 2.5 × 10^4 cells/well one day before transfection. […] The luciferase activity in 50 μl cell extract was determined using a luciferase assay system according to the standard protocol for the Synergy 2 Multi-Mode Microplate Reader (BioTek, Winooski, VT, USA). […] The concentrations of agonists that induced half-maximal stimulation (EC50) were calculated using the GraphPad PRISM5 software (GraphPad software, Inc., San Diego, CA). […]

[2] = biological target: T2, GALR3 double mutant L^100F, Y^103F (Homo sapiens, UniProt O60755, L100F/Y103F); assay: SRE-luc luciferase assay, GALR3 L100F,Y103F; conditions: GALR3 L^100F, SRE-luc in HEK293 Gqi cells, ligand 6 h, mean ± S.E., SEM
T2 construct: expressed in transfected cells; host or cells: HEK293 cells stably expressing Gqi
T2 sequence (O60755 1-368 L100F/Y103F): T1 sequence (O60755 1-368 Y103F) with L100F
Description: as §1

[3] = biological target: T3, GALR3 triple mutant L^100F, Y^103F, Y^107H (Homo sapiens, UniProt O60755, L100F/Y103F/Y107H); assay: SRE-luc luciferase assay, GALR3 L100F,Y103F,Y107H; conditions: GALR3 L^100F, SRE-luc in HEK293 Gqi cells, ligand 6 h, mean ± S.E., SEM
T3 construct: expressed in transfected cells; host or cells: HEK293 cells stably expressing Gqi
T3 sequence (O60755 1-368 L100F/Y103F/Y107H): T1 sequence (O60755 1-368 Y103F) with L100F, Y107H
Description: as §1

[4] = biological target: T4, GALR3 single mutant G^192S (Homo sapiens, UniProt O60755, G192S); assay: SRE-luc luciferase assay, GALR3 G192S; conditions: GALR3 G^192S; SRE-luc in HEK293 Gqi cells, ligand 6 h; mean ± S.E.; SEM
T4 construct: expressed in transfected cells; host or cells: HEK293 cells stably expressing Gqi
Description: as §1, with “sequencing.” for “sequencing. HEK293 cells stably expressing the Gqi construct, which allows induction of Gq-dependent signaling pathways upon activation of a Gi-coupled receptor [14, 30], were maintained in Dulbecco's Modified Eagle's Medium (DMEM) in the presence of 10% fetal bovine serum and 1% penicillin and streptomycin. For all transfections, 200 ng DNA (100 ng receptor and 100 ng SRE-luc) mixed with lipofectamine 2000 was applied to 60–80% confluent cells on a multi-well plate according to the manufacturer's instructions (Invitrogen, Carlsbad, CA). For luciferase assays, HEK293 Gqi cells were seeded on 48-well plates at a density of 2.5 × 10^4 cells/well one day before transfection.”

[5] = biological target: T5, GALR3 mutant L^184M,V^186I,A^187C (Homo sapiens, UniProt O60755, A187C/L184M/V186I); assay: SRE-luc luciferase assay, GALR3 L184M,V186I,A187C; conditions: GALR3 L^184M,V^186I,A^187C; SRE-luc in HEK293 Gqi cells, ligand 6 h; mean ± S.E.; SEM
T5 construct: expressed in transfected cells; host or cells: HEK293 cells stably expressing Gqi
Description: as §1, with “sequencing.” for “sequencing. HEK293 cells stably expressing the Gqi construct, which allows induction of Gq-dependent signaling pathways upon activation of a Gi-coupled receptor [14, 30], were maintained in Dulbecco's Modified Eagle's Medium (DMEM) in the presence of 10% fetal bovine serum and 1% penicillin and streptomycin. For all transfections, 200 ng DNA (100 ng receptor and 100 ng SRE-luc) mixed with lipofectamine 2000 was applied to 60–80% confluent cells on a multi-well plate according to the manufacturer's instructions (Invitrogen, Carlsbad, CA). For luciferase assays, HEK293 Gqi cells were seeded on 48-well plates at a density of 2.5 × 10^4 cells/well one day before transfection.”

[6] = biological target: T6, GALR3 mutant L^184M,V^186I,A^187C, A^190V,A^191F,G^192S (Homo sapiens, UniProt O60755, A187C/A190V/A191F/G192S/L184M/V186I); assay: SRE-luc luciferase assay, GALR3 hextuple mutant; conditions: GALR3 L^184M,V^186I,A^187C, SRE-luc in HEK293 Gqi cells, ligand 6 h, mean ± S.E., SEM
T6 construct: expressed in transfected cells; host or cells: HEK293 cells stably expressing Gqi
Description: as §1, with “sequencing.” for “sequencing. HEK293 cells stably expressing the Gqi construct, which allows induction of Gq-dependent signaling pathways upon activation of a Gi-coupled receptor [14, 30], were maintained in Dulbecco's Modified Eagle's Medium (DMEM) in the presence of 10% fetal bovine serum and 1% penicillin and streptomycin. For all transfections, 200 ng DNA (100 ng receptor and 100 ng SRE-luc) mixed with lipofectamine 2000 was applied to 60–80% confluent cells on a multi-well plate according to the manufacturer's instructions (Invitrogen, Carlsbad, CA). For luciferase assays, HEK293 Gqi cells were seeded on 48-well plates at a density of 2.5 × 10^4 cells/well one day before transfection.”

T4 sequence (O60755 whole entry G192S): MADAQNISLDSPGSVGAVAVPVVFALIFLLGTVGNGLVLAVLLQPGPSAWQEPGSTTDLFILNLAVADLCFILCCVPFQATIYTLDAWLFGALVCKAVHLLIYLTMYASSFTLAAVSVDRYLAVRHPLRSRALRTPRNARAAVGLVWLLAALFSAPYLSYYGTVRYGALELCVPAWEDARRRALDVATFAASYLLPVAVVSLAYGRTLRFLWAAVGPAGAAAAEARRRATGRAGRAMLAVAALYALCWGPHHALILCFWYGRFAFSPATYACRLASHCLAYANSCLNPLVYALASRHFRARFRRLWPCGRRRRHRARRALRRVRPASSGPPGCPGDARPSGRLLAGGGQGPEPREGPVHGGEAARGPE
T5 sequence (O60755 whole entry L184M/V186I/A187C): as the sequence (O60755 whole entry G192S) above, with L184M, V186I, A187C, S192G counted along it
T6 sequence (O60755 whole entry L184M/V186I/A187C/A190V/A191F/G192S): as the sequence (O60755 whole entry G192S) above, with L184M, V186I, A187C, A190V, A191F counted along it

| EC50 [1] [nM] | EC50 [2] [nM] | EC50 [3] [nM] | EC50 [4] [nM] | EC50 [5] [nM] | EC50 [6] [nM] | Compound |
| --- | --- | --- | --- | --- | --- | --- |
| 676 ± 127 | 174 ± 45 | 83.2 ± 26.9 |  |  |  | NWTPNAMLYLKGAQ-NH2 [N^5-SPX] |
| 32.4 ± 10.5 | 42.7 ± 9.54 | 30.9 ± 9.03 | 35.5 ± 12.6 | 115 ± 2.61 | 25.7 ± 7.92 | CSCC[C@H](NC(=O)[C@H](C)NC(=O)[C@H](CCC(N)=O)NC(=O)[C@@H]1CCCN1C(=O)[C@@H](NC(=O)[C@H](Cc1c[nH]c2ccccc12)NC(=O)[C@@H](N)CC(N)=O)[C@@H](C)O)C(=O)N[C@@H](CC(C)C)C(=O)N[C@@H](Cc1ccc(O)cc1)C(=O)N[C@@H](CC(C)C)C(=O)N[C@@H](CCCCN)C(=O)NCC(=O)N[C@@H](C)C(=O)N[C@@H](CCC(N)=O)C(N)=O [SPX, reference compound] |
| 302 ± 72.9 | 155 ± 45.2 | 64.6 ± 12.1 |  |  |  | NWTPQAALYLKGAQ-NH2 [A^7-SPX] |
|  |  |  | 355 ± 109 | 457 ± 118 | 112 ± 25.1 | NWTPQAMLYLKGPQ-NH2 [P^13-SPX] |
